The target of assay [1] is T1, SMYD3 (Homo sapiens (Human), UniProt Q9H7B4). Kind of assay: SMYD3 biochemical assay (SPA, 3H-SAM methylation of MEKK2 protein substrate). The conditions noted are these: read-out: SMYD3 Biochem IC50*. Put shortly:
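Tritium incorporation into GST-MEKK2 is counted by scintillation proximity after citric acid bead capture. Native human SMYD3 is preincubated with test compound for 30 min at room temperature at pH 8.0 (Tris-Cl, TCEP, BSG, Tween 20) before 3H-SAM and substrate are added; cold SAM at 100 uM final stops turnover.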

The target of assay [2] is T1, SMYD3. Kind of assay: SMYD3 cell assay (Trimethyl-MEKK2 In-Cell Western in 293T/17 cells). It is filed as cell-based. The conditions noted are these: read-out: SMYD3 Cell IC50*. Put shortly:
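In-Cell Western ratio of trimethyl-Lys260 MEKK2 to anti-flag signal; percent inhibition from DMSO and maximum-inhibition controls, IC50 by non-linear regression, triplicates.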

Results on 18 compounds are retold here after patent US10577363B2, “Substituted piperidine compounds” (EPIZYME, INC., priority 2014, dated 2020).

One may read the IC50 as the concentration needed to halve the response being measured.

T1 sequence (Q9H7B4 whole entry): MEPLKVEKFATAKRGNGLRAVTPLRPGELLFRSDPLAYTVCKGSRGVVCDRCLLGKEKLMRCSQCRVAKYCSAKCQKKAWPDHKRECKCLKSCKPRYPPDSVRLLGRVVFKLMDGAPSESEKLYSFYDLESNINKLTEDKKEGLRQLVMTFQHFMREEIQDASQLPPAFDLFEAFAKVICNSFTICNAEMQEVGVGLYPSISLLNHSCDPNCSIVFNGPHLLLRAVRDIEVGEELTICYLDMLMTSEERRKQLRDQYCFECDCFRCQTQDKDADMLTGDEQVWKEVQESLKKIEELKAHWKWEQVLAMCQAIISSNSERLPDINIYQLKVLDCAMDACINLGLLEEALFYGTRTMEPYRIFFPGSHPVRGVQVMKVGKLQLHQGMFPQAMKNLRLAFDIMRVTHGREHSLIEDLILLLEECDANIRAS

For the compound `O=C(N[C@H]1C[C@H]2CC[C@@H](C1)N2S(=O)(=O)N1CCNCC1c1ccccc1)c1cc(C2CC2)on1` (stereo partly drawn) [compound 939, 5-cyclopropyl-N-((1R,3r,5S)-8-((2-phenylpiperazin-1-yl)sulfonyl)-8-azabicyclo[3.2.1]octan-3-yl)isoxazole-3-carboxamide], the 50% inhibitory concentration (IC50) at SMYD3 [1] came to 44.7 nM; on SMYD3 [2], 361 nM.

`CC1CN(S(=O)(=O)N2[C@@H]3CC[C@H]2C[C@@H](NC(=O)c2cc(C4CC4)on2)C3)C(C)CN1C` (stereo partly drawn) [compound 941, 5-cyclopropyl-N-((1R,3r,5S)-8-((2,4,5-trimethylpiperazin-1-yl)sulfonyl)-8-azabicyclo[3.2.1]octan-3-yl)isoxazole-3-carboxamide]: the IC50 at SMYD3 [1] is 47.9 nM; at SMYD3 [2] it was 341 nM.

As for `O=C(N[C@H]1C[C@H]2CC[C@@H](C1)N2S(=O)(=O)NC1CCN[C@H](Cc2ccccc2)C1)c1cc(C2CC2)on1` (stereo partly drawn) [compound 942, N-((1R,3R,5S)-8-(N-((2R)-2-benzylpiperidin-4-yl)sulfamoyl)-8-azabicyclo[3.2.1]octan-3-yl)-5-cyclopropylisoxazole-3-carboxamide], the 50% inhibitory concentration (IC50) came to 48.1 nM at SMYD3 [1] and 659 nM on SMYD3 [2].

As to `C[C@H](NC1CCN(S(=O)(=O)N2[C@@H]3CC[C@H]2C[C@@H](NC(=O)c2cc(C4CC4)on2)C3)CC1)c1ccc(F)cc1` [compound 943, 5-cyclopropyl-N-((1R,3S,5S)-8-((4-(((S)-1-(4-fluorophenyl)ethyl)amino)piperidin-1-yl)sulfonyl)-8-azabicyclo[3.2.1]octan-3-yl)isoxazole-3-carboxamide], the IC50 on SMYD3 [1] worked out at 48.1 nM; at SMYD3 [2], 602 nM.

As for `C[C@@H](NC1CCN(S(=O)(=O)N2[C@@H]3CC[C@H]2C[C@@H](NC(=O)c2cc(C4CC4)on2)C3)CC1)c1ccc(F)cc1` [compound 944, 5-cyclopropyl-N-((1R,3R,5S)-8-((4-(((R)-1-(4-fluorophenyl)ethyl)amino)piperidin-1-yl)sulfonyl)-8-azabicyclo[3.2.1]octan-3-yl)isoxazole-3-carboxamide], the results for the concentration for half-maximal inhibition (IC50) on SMYD3 [1] and at SMYD3 [2] were 48.9 nM and 683 nM, respectively.

Regarding `O=C(N[C@H]1C[C@H]2CC[C@@H](C1)N2S(=O)(=O)N(Cc1ccccc1)C1CCNCC1)c1cc(C2CC2)on1` [compound 945, N-((1R,3r,5S)-8-(N-benzyl-N-(piperidin-4-yl)sulfamoyl)-8-azabicyclo[3.2.1]octan-3-yl)-5-cyclopropylisoxazole-3-carboxamide], the half-inhibitory concentration (IC50) on SMYD3 [1] worked out at 50.6 nM; at SMYD3 [2], 223 nM.

With `O=C(N[C@H]1C[C@H]2CC[C@@H](C1)N2S(=O)(=O)c1ccc(CNCCO)cc1)c1cc(C2CC2)on1` [compound 946, 5-cyclopropyl-N-((1R,3r,5S)-8-((4-(((2-hydroxyethyl)amino)methyl)phenyl)sulfonyl)-8-azabicyclo[3.2.1]octan-3-yl)isoxazole-3-carboxamide], the IC50 at SMYD3 [1] turned out to be 51 nM; on SMYD3 [2] it was 332 nM.

In the case of `O=C(N[C@H]1C[C@H]2CC[C@@H](C1)N2S(=O)(=O)N1CCC(NCCN2CCOCC2)CC1)c1cc(C2CC2)on1` [compound 947, 5-cyclopropyl-N-((1R,3r,5S)-8-((4-((2-morpholinoethyl)amino)piperidin-1-yl)sulfonyl)-8-azabicyclo[3.2.1]octan-3-yl)isoxazole-3-carboxamide], the IC50 at SMYD3 [1] was found to be 52.3 nM; at SMYD3 [2], 338 nM.

As to `O=C(N[C@H]1C[C@H]2CC[C@@H](C1)N2S(=O)(=O)NC1CCN(Cc2ccccc2)CC1)c1cc(C2CC2)on1` [compound 948, N-((1R,3r,5S)-8-(N-(1-benzylpiperidin-4-yl)sulfamoyl)-8-azabicyclo[3.2.1]octan-3-yl)-5-cyclopropylisoxazole-3-carboxamide], the IC50 worked out at 52.4 nM at SMYD3 [1] and 411 nM at SMYD3 [2].

With `O=C(N[C@H]1CCN(S(=O)(=O)NC2CCNCC2)[C@@H](Cc2ccccc2)C1)c1cc(C2CC2)on1` [compound 949, N-((2S,4S)-2-benzyl-1-(N-(piperidin-4-yl)sulfamoyl)piperidin-4-yl)-5-cyclopropylisoxazole-3-carboxamide], the IC50 on SMYD3 [1] came to 52.7 nM; on SMYD3 [2], 1510 nM.

Turning to `CC1CN(C)CCN1S(=O)(=O)N1[C@@H]2CC[C@H]1C[C@@H](NC(=O)c1cc(C3CC3)on1)C2` (stereo partly drawn) [compound 950, 5-cyclopropyl-N-((1R,3r,5S)-8-((2,4-dimethylpiperazin-1-yl)sulfonyl)-8-azabicyclo[3.2.1]octan-3-yl)isoxazole-3-carboxamide], the 50% inhibitory concentration (IC50) on SMYD3 [1] turned out to be 52.9 nM; at SMYD3 [2], 390 nM.

In the case of `CN(C1CCCNC1)S(=O)(=O)N1[C@@H]2CC[C@H]1C[C@@H](NC(=O)c1cc(C3CC3)on1)C2` (stereo partly drawn) [compound 951, 5-cyclopropyl-N-((1R,3r,5S)-8-(N-methyl-N-(piperidin-3-yl)sulfamoyl)-8-azabicyclo[3.2.1]octan-3-yl)isoxazole-3-carboxamide], the IC50 at SMYD3 [1] was determined as 54.1 nM; at SMYD3 [2], 395 nM.

As for `CN1CCC[C@H](S(=O)(=O)N2[C@@H]3CC[C@H]2C[C@@H](NC(=O)c2cc(C4CC4)on2)C3)C1` [compound 952, 5-cyclopropyl-N-((1R,3S,5S)-8-(((S)-1-methylpiperidin-3-yl)sulfonyl)-8-azabicyclo[3.2.1]octan-3-yl)isoxazole-3-carboxamide], the 50% inhibitory concentration (IC50) at SMYD3 [1] was 56.2 nM; at SMYD3 [2], 281 nM.

For `O=C(N[C@H]1C[C@H]2CC[C@@H](C1)N2S(=O)(=O)c1ccc(CN2CCCC2)cc1)c1cc(C2CC2)on1` [compound 953, 5-cyclopropyl-N-((1R,3r,5S)-8-((4-(pyrrolidin-1-ylmethyl)phenyl)sulfonyl)-8-azabicyclo[3.2.1]octan-3-yl)isoxazole-3-carboxamide], the IC50 at SMYD3 [1] is 57 nM; on SMYD3 [2], 585 nM.

As to `CC[C@H]1C[C@@H](NC(=O)c2cc(C3CC3)on2)CCN1S(=O)(=O)CC1CCN(C)CC1` [compound 954, 5-cyclopropyl-N-((2S,4S)-2-ethyl-1-(((1-methylpiperidin-4-yl)methyl)sulfonyl)piperidin-4-yl)isoxazole-3-carboxamide], the IC50 at SMYD3 [1] was found to be 57.9 nM; at SMYD3 [2], 583 nM.

As for `COCCN1C2CCC1CN(S(=O)(=O)N1[C@@H]3CC[C@H]1C[C@@H](NC(=O)c1cc(C4CC4)on1)C3)C2` [compound 955, 5-cyclopropyl-N-((1R,3r,5S)-8-((8-(2-methoxyethyl)-3,8-diazabicyclo[3.2.1]octan-3-yl)sulfonyl)-8-azabicyclo[3.2.1]octan-3-yl)isoxazole-3-carboxamide], the results for the IC50 at SMYD3 [1] and at SMYD3 [2] were 59.2 nM and 373 nM, respectively.

With `O=C(N[C@H]1C[C@H]2CC[C@@H](C1)N2S(=O)(=O)C[C@H]1CCCN1)c1cc(C2CC2)on1` [compound 956, 5-cyclopropyl-N-((1R,3R,5S)-8-((((R)-pyrrolidin-2-yl)methyl)sulfonyl)-8-azabicyclo[3.2.1]octan-3-yl)isoxazole-3-carboxamide], the IC50 turned out to be 59.6 nM on SMYD3 [1] and 733 nM at SMYD3 [2].

Regarding `C[C@H]1CN(S(=O)(=O)[C@H]2CC[C@@H](N(C)C)CC2)CC[C@H]1NC(=O)c1cc(C2CC2)on1` [compound 957, 5-cyclopropyl-N-((3S,4R)-1-(((1s,4R)-4-(dimethylamino)cyclohexyl)sulfonyl)-3-methylpiperidin-4-yl)isoxazole-3-carboxamide], the concentration for half-maximal inhibition (IC50) at SMYD3 [1] came out at 69 nM; at SMYD3 [2] it was 512 nM.
